Results taken from patent publication US11007282B2, “Compositions for circulatory system visualization” (DICRONIS SAGL, priority 2015, dated 2021).

Legend:
[1] = In vitro fluorescence quantification of PVP-ICG formulations (Kollidon 17 PF), microplate reader; details: λEx/Em 770/818 nm
[2] = in vivo; cited from earlier work

- n-fold increase of ICG fluorescence in presence of PVP compared to water solution ([1]; ICG 0.025 mg/mL, Kollidon 17 PF 0.25 g/mL (1:10'000)): 1.32 n-fold
- n-fold increase of ICG fluorescence in presence of PVP compared to water solution ([1]; ICG 0.06 mg/mL, Kollidon 17 PF 0.25 g/mL (1:4'166)): 1.68 n-fold
- n-fold increase of ICG fluorescence in presence of PVP compared to water solution ([1]; ICG 0.15 mg/mL, Kollidon 17 PF 0.25 g/mL (1:1'666)): 2.2 n-fold
Structure (SMILES): CC1(C)C(/C=C/C=C/C=C/C=C2\N(CCCCS(=O)(=O)O)c3ccc4ccccc4c3C2(C)C)=[N+](CCCCS(=O)(=O)[O-])c2ccc3ccccc3c21 [ICG, sodium 4-[2-[(1E,3E,5E,7Z)-7-[1,1-dimethyl-3-(4-sulfonatobutyl)benzo[e]indol-2-ylidene]hepta-1,3,5-trienyl]-1,1-imethylbenzo[e]-indol-3-ium-3-yl]butane-1-sulfonate]
- route of excretion [2]: excreted exclusively in the bile
